The results in this text go back to the Deep4Chem optical property database.

This data set can be described thus: solvent given as SMILES.

Values joined by “and” are separate entries in the source; they are usually repeats but may differ in a detail not shown here. Identical values can stand only once.

In the case of `Cc1ccc(-n2c3ccccc3c3cc(C(=C(C#N)C#N)c4ccccc4)ccc32)cc1`, the absorption maximum is 442 nm (in C1CCOC1); 445 nm (in CC#N); 442 nm (in CC(C)=O); 442 nm (in CCOC(C)=O); 447 nm (in CO); 453 nm (in CS(C)=O). Also, the absorption maximum was 447 nm (in Cc1ccccc1) and 458 nm (in ClC(Cl)Cl).
For the compound `COc1ccc(-c2c3nc(cc4ccc([nH]4)c(-c4ccc(OC)c(OCC(=O)O)c4)c4nc(cc5ccc2[nH]5)CC4)C=C3)cc1OCC(=O)O`, the absorption maximum (in CS(C)=O) is reported as 644 nm.
Consider `O=C1c2ccccc2C2=Cc3cc4c(cc3B(O)N12)OCO4`, for which the absorption maximum is, setting by setting: (in CC#N) 392 nm; (in CO) 394 nm; (in CS(C)=O) 396 nm; (in ClC(Cl)Cl) 397 nm.
`COc1ccc(N(c2ccc(C=C(c3ccccc3)c3ccccc3)cc2)c2ccc(C=C(c3ccccc3)c3ccccc3)cc2)cc1`: the absorption maximum (in Cc1ccccc1) is on record as 397 nm.
With `O=C1OC(c2ccccc2)=N/C1=C\c1ccc(N(c2ccc(/C=C3\N=C(c4ccccc4)OC3=O)cc2)c2ccc(/C=C3/N=C(c4ccccc4)OC3=O)cc2)cc1`, the absorption maximum reads like this: (in C1CCCCC1) 497.5 nm; (in C1CCOC1) 500 nm; (in C1COCCO1) 502 nm; (in CC1CCCCC1) 498.5 nm; (in CC#N) 498 nm; (in CC(C)=O) 499 nm. Further, the absorption maximum by setting is: (in CC(C)CC(C)(C)C) 492 nm; (in CCCCC) 489 nm; (in CCCCCC) 491 nm; (in CCCCCCC) 495 nm; (in CCCCOCCCC) 497.5 nm; (in CCOC(C)=O) 496 nm. Besides, the absorption maximum (in CCOCC) was found to be 496.5 nm; the absorption maximum (in CN(C)C=O) is 504 nm; the absorption maximum (in CS(C)=O) is recorded as 506 nm; the absorption maximum (in Cc1ccccc1) is recorded as 505.5 nm; the absorption maximum (in ClC(Cl)Cl) is given as 509.5 nm.
Take `C#Cc1ccc2c(C)cc(=O)oc2c1`: for the setting “in CCO”, the absorption maximum turned out to be 325 nm.
Take `COC(=O)c1ccc(C#Cc2ccc(N(C)C)cc2)cc1`: the absorption maximum is 359.51 nm (in C1CCCCC1); 361.89 nm (in C1CCOC1); 360.5 nm (in C1COCCO1); 354.5 nm (in CC1CCCO1); 360.5 nm (in CC#N); 362 nm (in CC(C)=O). The absorption maximum is, setting by setting: (in CC(C)CC(C)(C)C) 364.5 nm; (in CC(C)O) 360.5 nm; (in CCCCCCCCCCCCCCCC) 365.5 nm; (in CCCCCCCCCCCCCCCCCl) 370.49 nm; (in CCOC(C)=O) 357 nm; (in CCOCC) 354.5 nm. The compound also yielded an absorption maximum (in CN(C)C=O) of 367.5 nm, an absorption maximum (in CO) of 359 nm, an absorption maximum (in CS(C)=O) of 370 nm and an absorption maximum (in Cc1ccccc1) of 369.49 nm.
Regarding `CCCCCCCCCCCCn1c(-c2cc(-c3nc4ccc(C)cc4n3CCCCCCCCCCCC)cc(-c3nc4ccc(C)cc4n3CCCCCCCCCCCC)c2)nc2ccc(C)cc21`, the absorption maximum (in ClCCl) is recorded as 306.5 nm.
Same read-out and setting: the value for `CN(C)c1ccc(C#Cc2cc3ccccc3oc2=O)cc1` was 406 nm.
Consider `c1ccc(-c2nc(-c3cccc4ccccc34)n3ccccc23)cc1`, for which the absorption maximum (in C1CCCCC1) was 362 nm; the absorption maximum (in CC#N) is 355 nm; the absorption maximum (in CO) came out at 350 nm; the absorption maximum (in ClCCl) turned out to be 357 nm; the absorption maximum (in O) stood at 367 nm.
Where the note is “in ClCCl”, `CCCCCCOc1cc(/C=C/c2cc(OCCCCCC)c(/C=C/c3cc(OCCCCCC)c(C=C4C(=O)c5ccccc5C4=O)cc3OCCCCCC)cc2OCCCCCC)c(OCCCCCC)cc1C=C1C(=O)c2ccccc2C1=O` showed an absorption maximum of 550 nm.
Consider `CCC1=C(C)C2=Cc3c4ccccc4c4n3[B-](c3ccccc3)(Oc3ccccc3-4)[N+]2=C1C` (configuration not stated), for which the absorption maximum is 621 nm (in CC#N), 625 nm (in CCCCCC), 629 nm (in Cc1ccccc1) and 627 nm (in ClCCl).
Take `O=C(O)CCNc1cccc2ccccc12`: the absorption maximum (in CCO) worked out at 330 nm.
Regarding `FC(F)(F)c1ccc(-c2pc3ccccc3s2)cc1` (configuration not stated), under “in CC#N”, the absorption maximum is 331 nm.
The compound `CC[n+]1nc2cc3c4c(c2c2ccccc21)CCCN4CCC3` yielded an absorption maximum (in O) of 493 nm.
As to `CCOC(=O)c1cc(C(=O)OCC)c2ccc(N(C)C)cc2n1`, the absorption maximum (in CCO) turned out to be 430 nm.
For `CC1=[N+]2C(=C(c3c4ccccc4cc4ccccc34)c3ccc(C)n3[B-]2(F)F)C=C1`, the absorption maximum runs as follows: (in C1CCOC1) 517 nm; (in CC#N) 514 nm; (in CCCCCC) 515 nm and 516 nm; (in CCO) 515 nm; (in CN(C)C=O) 517 nm; (in CO) 517 nm. The absorption maximum is, setting by setting: (in CS(C)=O) 519 nm; (in Cc1ccccc1) 519 nm; (in ClC(Cl)Cl) 518 nm; (in ClCCl) 518 nm.
`Brc1cnc(-c2ccncc2)s1` had an absorption maximum (in CO) of 306 nm.
In turn, `CC1=CC(/C=C/c2ccc(C)cc2)=[N+]2C1=C(c1ccccc1)c1c(C)cc(/C=C/c3ccc(C)cc3)n1[B-]2(F)F` had an absorption maximum (in CC1CCCO1) of 631 nm.
Turning to `C(=C\c1ccc(-c2nnc(-c3ccc(/C=C/c4ccc(-c5nc(-c6ccccc6)c(-c6ccccc6)[nH]5)cc4)cc3)o2)cc1)/c1ccc(-c2nc(-c3ccccc3)c(-c3ccccc3)[nH]2)cc1`, the absorption maximum reads like this: (in C1CCOC1) 396 nm; (in CC#N) 391 nm; (in CN(C)C=O) 397 nm; (in Cc1ccccc1) 397 nm.
Turning to `c1ccc2c(c1)nc1ccccn12`, the absorption maximum (in CC#N) is 344 nm.
`CCCC1=Cc2nc1ccc1[nH]c(cc1CCOC)c1nc(ccc3[nH]c2cc3CCC)C(CCC)=C1` had an absorption maximum (in Cc1ccccc1) of 637 nm.
For the compound `CN(C)c1nc(N(C)C)c2nc(C#N)n(Cc3ccccc3)c2n1`, the absorption maximum runs as follows: (in C1COCCO1) 345 nm; (in CC#N) 344 nm; (in CO) 342 nm; (in ClCCl) 348 nm.
Compound `CCCC1=Cc2nc1ccc1[nH]c(cc1CCC)c1nc(ccc3[nH]c2cc3CCC)C(CCC)=C1` registered an absorption maximum (in Cc1ccccc1) of 667 nm.
The compound `CCCCOc1c(C=C2Sc3ccccc3N2C)c(=O)c1=O` came in with an absorption maximum (in CCO) of 442 nm.
As for `Cc1cc(C)nc(N)n1`, the absorption maximum (in CCO) is reported as 297 nm, the absorption maximum (in CO) was determined as 296 nm and the absorption maximum (in O) is reported as 284 nm.
On to `c1ccc(-n2nc(-c3ccc(N4c5ccccc5Sc5ccccc54)cc3)nc2-c2ccccn2)cc1`, for which the absorption maximum (in ClCCl) is reported as 329 nm.
For the compound `COC(=O)c1ccc(-c2nc3ccc(N(C)C)cc3s2)cc1`, the absorption maximum by setting is: (in C1CCCCC1) 387 nm; (in CC#N) 392 nm; (in CC(C)O) 393 nm; (in CO) 396 nm; (in CS(C)=O) 405 nm; (in ClC(Cl)Cl) 395 nm. The same compound showed an absorption maximum (in c1ccccc1) of 394 nm.
In the case of `CCOC(=O)CCCCCn1c2ccccc2c(=O)c2cc3c(cc21)c(=O)c1cc(I)ccc1n3CCCCCC(=O)OCC`, the absorption maximum (in CO) turned out to be 535 nm.
As for `O=C(c1ccncc1)c1ccc(-n2c3ccc(-n4c5ccccc5c5ccccc54)cc3c3cc(-n4c5ccccc5c5ccccc54)ccc32)cc1`, the absorption maximum reads like this: (in C1CCOC1) 341.83 nm; (in Cc1ccccc1) 360.08 nm; (in ClCCl) 341.83 nm.
For the compound `Clc1nnc(O/N=C/c2ccc(N(c3ccc(Br)cc3)c3ccc(Br)cc3)cc2)nn1`, the absorption maximum (in ClCCl) stood at 520 nm.
In the case of `CC(=O)OCOC(=O)CN(CC(=O)OCOC(C)=O)c1ccccc1OCCOc1cc(NC(=O)c2ccc3c(c2)C(=O)OC32c3cc(Cl)c(OC(C)=O)cc3Oc3cc(OC(C)=O)c(Cl)cc32)ccc1N(CC(=O)OCOC(C)=O)CC(=O)OCOC(C)=O`, the absorption maximum (in O) was 506 nm.
As to `c1ccc2c(-c3cncnc3)c3ccccc3c(-c3cncnc3)c2c1`, the absorption maximum is, setting by setting: (in CCO) 394 nm; (in ClCCl) 397 nm.
As to `Clc1ccc(/C=C(\c2ccccc2)c2nc3ccccc3s2)cc1`, the absorption maximum reads like this: (in C1CCCCC1) 340 nm; (in CO) 340 nm.
With `Cc1ccc(C2=C3C=CC4=[N+]3[P-](=O)(=O)n3c2ccc3-c2ccc([nH]2)/C(c2ccc(C)cc2)=c2/cc/c(o2)=C(\c2ccc(C)cc2)c2ccc4[nH]2)cc1`, the absorption maximum (in ClC(Cl)Cl) is 708 nm.
On to `Cn1cccc1-c1cc(C#N)ccc1C#N`, for which the absorption maximum runs as follows: (in C1CCOC1) 370 nm; (in CC#N) 359 nm; (in CCCCCC) 366 nm; (in CCCCOCCCC) 370 nm; (in CCOCC) 364 nm.
Take `COc1cc(C2=C(c3ccc(C(C)(C)C)cc3)C(c3ccc(C(C)(C)C)cc3)=[N+]3C2=Nc2c(-c4cc(OC)c(OC)c(OC)c4)c(-c4ccc(C(C)(C)C)cc4)c(-c4ccc(C(C)(C)C)cc4)n2[B-]3(F)F)cc(OC)c1OC`: the absorption maximum (in Cc1ccccc1) is on record as 675 nm.
Under “in CN(C)C=O”, `Cc1nc2cccc(-c3nc4ccccc4o3)c2c(=O)[nH]1` came in with an absorption maximum of 310 nm.
Under “in C1CCOC1”, `COc1cc2c(cc1-c1ccc(N(C)C)cc1)Cc1c3c(c4c(c1-2)-c1cc(OC)c(-c2ccc(N(C)C)cc2)cc1C4)C(=O)N(CCC(C)C)C3=O` registered an absorption maximum of 440 nm.
With `Cc1cc(-c2ccc(C(C)(C)C)cc2)cc(C)[o+]1`, the absorption maximum is, setting by setting: (in CC#N) 345 nm; (in ClCCl) 365 nm.
`COc1ccc(-n2cccc2)cc1` had an absorption maximum (in CC#N) of 252 nm and an absorption maximum (in CCCCCC) of 252 nm.
